Test results as given in paper PMC6100259, “Insights into Structure-Activity Relationships of 3-Arylhydrazonoindolin-2-One Derivatives for Their Multitarget Activity on β-Amyloid Aggregation and Neurotoxicity” (Molecules : A Journal of Synthetic Chemistry and Natural …, 2018).
In brackets after ≈: the same amount, converted by molar mass. Where two headings read alike, the source gives them in different places.

How the values were obtained:
[1] = Lipophilicity by RP-HPLC (log k'w); format: physicochemical; conditions: RP-HPLC C18, MeOH/10 mM ammonium formate buffer pH 4.5, extrapolated to 100% aqueous mobile phase, 25 °C
Description: To place on a more quantitative basis the above SAR trends, the lipophilicity of a number of isatin arylhydrazone derivatives was measured by an RP-HPLC method. The polycratic capacity factors (log k’w) were determined (details in the Experimental Section). Lipophilicity descriptors (i.e., 1-octanol–water partition coefficients) were also calculated (CLOGPs) using two computational tools (Bio-Loom software, v. 1.7 and ACDLabs software, release 10.0). The ACDLabs software was used also for calculating descriptors of polarizability and size, namely molar refractivity (CMR) and molar volume (MV). The experimental lipophilicity parameters (log k’w), along with CMR and MV, are reported in Table 6 for 18 compounds achieving finite IC50s (<100 µM) in the Aβ aggregation assay.
The lipophilicity parameters were determined by an RP-HPLC technique. Methanol solutions of the investigated hydrazone compounds (0.5 mg/mL) were injected into an Agilent 1260 infinity HPLC system (Agilent Technologies Italia, Milan), equipped with a diode array detector (DAD), and a Phenomenex Kinetex C18 column (150 × 4.6 mm, 5 μ, Phenomenex Italy s.r.l., Castel Maggiore, BO, Italy), and eluted at different mobile phase compositions (0.05 increments of MeOH volume fraction in 10 mM ammonium formate buffer at pH 4.5, ranging ϕ between 0.85 and 0.30). All RP-HPLC measurements were carried out at 25 ± 1 °C, at a flow rate of 1.0 mL/min, and at 254 nm wavelength.
The logarithm of capacity factors (log k′ = log (tR − t0)/t0) of each compound at different mobile phase compositions have been calculated; tR represents the retention time of the solute and t0 is the column dead time, measured as the elution time of a KNO3 solution in MeOH. For each compound, the log k′ values increased linearly with decreasing MeOH volume fraction. Logarithms of capacity factors extrapolated to the 100% aqueous mobile phase (log k′w) were calculated from the linear regressions on at least five data points (r^2 > 0.975).

[2] = parameters: method as in PMID 28801274; conditions: pH 7.4 and 37 °C; cited from earlier work
[3] = parameters: method as in PMID 28801274; conditions: Tris/HCl buffer, pH 7.4 at 25 °C; cited from earlier work
[4] = target: T1, Aβ40 peptide (Homo sapiens, UniProt P05067); parameters: method as in PMID 21144622; conditions: read-out: IC50 inhibition of Aβ40 aggregation; hit compound, previously reported; cited from earlier work
T1 construct: we preferred using Aβ40 peptide
T1 sequence (P05067 672-711 limits assumed): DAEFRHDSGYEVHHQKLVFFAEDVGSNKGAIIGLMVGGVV

[5] = system: AChE; parameters: method as in PMID 28801274; conditions: read-out: IC50 AChE inhibition; cited from earlier work
[6] = target: T1, Aβ40 peptide; assay: Inhibition of Aβ40 aggregation, ThT fluorescence-based method; format: biochemical
Description: In vitro inhibition of Aβ aggregation was assessed through a ThT fluorescence-based method, with the use of 2% 1,1,1,3,3,3-hexafluoroisopropanol (HFIP) as aggregation enhancer. In this medium-throughput assay, we preferred using Aβ40 peptide, being more manageable than Aβ42 and less prone to the formation of preaggregates. Samples of Aβ were co-incubated with test molecules in PBS at 100 µM concentration and the antiaggregating activities were measured after 2 h of incubation at 25 °C. For compounds showing >80% Aβ40 aggregation inhibition, IC50s were determined.
(§1) The spectrofluorimetric assays, measuring ThT fluorescence in the presence of Aβ, were done as previously described. Briefly, coincubation samples were prepared as described above (Section 2.2 and Section 2.3) in 96-well black, non-binding microplates (Greiner Bio-One GmbH, Frickenhausen, Germany). Fluorimetric reads were performed in a multiplate reader Infinite M1000 Pro (Tecan, Cernusco sul Naviglio, Italy). Each concentration point was run in triplicate. CD ellipticity measures were performed as detailed in ref. [20], following the increase of the negative band at 215 nm as indicative of β-sheet arrangement.

[7] = target: Aβ42 peptide (Homo sapiens, UniProt P05067); assay: Kinetics of Aβ42 fibrillization (ThT fluorescence and CD); format: biochemical; conditions: 50 µM Aβ42 with 20 µM compound, PBS 2% ethanol, 37 °C, after one week
Sequence of Aβ42 peptide (P05067 672-713 limits assumed): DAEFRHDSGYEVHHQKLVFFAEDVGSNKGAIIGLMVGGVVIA
Description: For ThT and circular dichroism (CD) time-course measures of Aβ aggregation (50 µM), alone or in the presence of 28 (20 µM), samples were prepared in PBS containing 2% v/v ethanol as the cosolvent, and incubated at 37 °C. Aβ42 peptide was preferred, being the principal responsible of amyloid burden in AD brain. Kinetics of amyloid aggregation of Aβ42 was followed by means of ThT fluorescence and CD absorption. In the latter case, we monitored the increase of the negative band at 215 nm, probing the random coil to β-sheet transition in folding peptide. Results depicted in Figure 4 show a fast fibrillization of self-aggregating peptide (dotted black line), with fibrils already detectable in large amount in the first 48 h of incubation.
as §1

[8] = system: SH-SY5Y cells; assay: Antioxidant activity, H2O2-induced ROS production, DCFH-DA assay; format: cell-based; conditions: Homo sapiens, 20 µM compound, 100 µM hydrogen peroxide, read-out: ROS scavenging, maximum effect relative to effect of 100 µM quercetin
Description: (§2) Protection from Aβ42-induced cytotoxicity was measured for compound 28 in a conventional cell-based assay, measuring cell viability by means of MTT reduction. Antioxidant activity of 28 was assessed in an H2O2-induced oxidation cell model. Reactive oxygen species (ROS) production was detected by means of a spectrofluorometric measure of the fluorescent probe 2′,7′-dichlorofluorescein (DCF), formed by oxidation of 2′,7′-dichlorodihydrofluorescein (DCFH). In both assays, human SH-SY5Y neuroblastoma cell line was used.
Intracellular ROS production was evaluated using an oxidation-sensitive fluorescent probe, 2′,7′-dichlorodihydrofluorescin diacetate (DCFH-DA; Sigma-Aldrich). Viable SHSY5Y cells were seeded in a black 96-well cell culture plate for 24 h, then the cells were incubated in DMEM supplemented with different concentration (0 to 20 μM) of 28 for 1 h. After washing, DCFH-DA (50 μM final concentration) was added directly to each well, and the plate was incubated at 37 °C in 5% CO2 for 0.5 h. […] The formation of fluorescent dichlorofluorescein (DCF) due to oxidation of DCFH in the presence of ROS was read directly in each well at an excitation wavelength of 485 nm and an emission wavelength of 530 nm using a multilabel plate reader Victor3 V (Perkin Elmer), with DMSO medium as the control.

[9] = system: SH-SY5Y cells; assay: Protection from Aβ42-induced cytotoxicity, MTT assay; format: cell-based, human; conditions: 5 µM Aβ42 co-incubated with equimolar 5 µM compound, within two days
Description: as §2
Cytoprotection from Aβ42-induced neurotoxicity and from ROS generation was assessed in SH-SY5Y cells as already described. At least three independent experiments with six replicates (n ≥ 18) were carried out, and the results were averaged. Briefly, for MTT assay, SH-SY5Y cells were cultured in DMEM-Dulbecco’s modified Eagle’s medium (Sigma-Aldrich), grown to 70% confluence and seeded for experiment in 96-well plates at a density of 10,000 cells/well. Cultured cells were added with a DMEM solution of Aβ42, alone or in mixture with 28 (5 μM final concentration of both) and incubated at 37 °C in 5% CO2. […] After removal of solution and addition of DMSO, the absorbance of product formazan produced from MTT was measured at 570 nm using a multilabel plate counter Victor3 V (Perkin Elmer, Milan, Italy), with DMSO medium as the blank solution.

[10] = Aqueous solubility in Tris/HCl buffer; format: physicochemical; conditions: pH 7.4 at 25 °C
Source text: Based on data in Table 1, Table 2, Table 3, Table 4 and Table 5, compound 28 was selected for further biological and biophysical studies, aimed at elucidating the mechanism of disruption of Aβ aggregation, and evaluating the activity in biochemical assays related to neurodegeneration, and cytoprotection in a cell model of Aβ toxicity. Starting from the evidence that a bulky substituent led to a net improvement of antiaggregating activity (Table 5), we chose the N^1-cyclopropyl derivative 28 as the best compromise between in vitro activity and aqueous solubility.

Structure (SMILES) | log k'w [1] | half-life [2] [h] | solubility [3] [µM] | IC50 [4] [nM] | IC50 [5] [nM] | IC50 ([6]; Aβ40 aggregation inhibition, read-out: pIC50, Aβ antiaggregating potency (converted)) [nM] | fibril content compared with that of control peptide [7] | Emax at 20 µM [8] [%] | cell viability (MTT reduction) [9] | solubility [10] [µM] | IC50 [6] [nM]
COc1ccc2c(c1)/C(=N/Nc1ccc(C(C)C)cc1)C(=O)N2 [Compound 1, (3Z)-5-methoxy-1H-indole-2,3-dione 3-[(4-isopropylphenyl)hydrazone]] | 5.44 | 24 | 71 (≈ 22 µg/mL) | 430 ± 40 | 6250 | 398 | – | – | – | – | –
COc1ccc2c(c1)/C(=N/Nc1ccc(C(C)C)cc1)C(=O)N2C1CC1 [Compound 28, (Z)-1-Cyclopropyl-3-(2-(4-isopropylphenyl)hydrazono)-5-methoxyindolin-2-one] | 6.36 | – | – | – | – | – | about 30% | ~50 | fully viable | 21 (≈ 7.34 µg/mL) | 800 ± 130
